The values below come from patent US9796700B2 (Celgene CAR LLC, priority 2013, dated 2017).

In the experiment the target is Erk1 (Homo sapiens (Human), UniProt P27361). The experiment is described as follows: Protein Mass Modification Assay (intact protein MALDI). Type of experiment: binding. The gist of the method:
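Human Erk1 was incubated 60 min at room temperature with a 10-fold molar excess of compound, then analysed as intact protein by MALDI with sinapinic acid matrix. The centroid mass shift versus untreated protein was divided by compound molecular weight to give percent modified protein.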

Erk1, sequence (P27361 whole entry, looked up): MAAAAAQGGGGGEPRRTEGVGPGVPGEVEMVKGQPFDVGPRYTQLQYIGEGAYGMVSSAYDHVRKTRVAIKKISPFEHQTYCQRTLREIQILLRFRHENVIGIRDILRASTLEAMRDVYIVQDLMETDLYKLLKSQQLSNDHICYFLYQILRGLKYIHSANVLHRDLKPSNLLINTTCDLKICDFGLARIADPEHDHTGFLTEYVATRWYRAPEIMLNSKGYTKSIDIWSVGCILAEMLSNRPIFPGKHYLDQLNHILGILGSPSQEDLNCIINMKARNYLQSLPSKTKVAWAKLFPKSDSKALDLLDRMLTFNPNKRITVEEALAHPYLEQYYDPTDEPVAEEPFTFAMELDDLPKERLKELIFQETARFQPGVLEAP

With `C=CC(=O)Nc1ccccc1Nc1nc(Nc2ccc(N3CCOCC3)cc2OC)ncc1C(=O)NCC` [Compound I-251, 4-((2-acrylamidophenyl)amino)-N-ethyl-2-((2-methoxy-4-morpholinophenyl)amino)pyrimidine-5-carboxamide], the “ERK1 Mass Mod (%)” value is given as “G (proived a mass modification ≦30%)”.

Turning to `C=CC(=O)N[C@@H]1CCCC[C@H]1Nc1nc(Nc2cc(C(N)=O)ccc2C)ncc1C(N)=O` (racemic) [Compound I-255, Rac-trans-4-((2-acrylamidocyclohexyl)amino)-2-((5-carbamoyl-2-methylphenyl)amino)pyrimidine-5-carboxamide], the “ERK1 Mass Mod (%)” value was “F (provided a mass modification of 31-69%)”.

As to `C=CC(=O)Nc1cc(C)ccc1Nc1nc(Nc2cc(OC)nc(N3CCN(C(C)=O)CC3)c2)ncc1C(F)(F)F` [Compound I-93, N-(2-((2-((2-(4-Acetylpiperazin-1-yl)-6-methoxypyridin-4-yl)amino)-5-(trifluoromethyl)pyrimidin-4-yl)amino)-5-methylphenyl)acrylamide], the “ERK1 Mass Mod (%)” value is reported as “E (key: E: provided a mass modification of ≧70%; F: provided a mass modification of 31-69%; G: proived a mass modification ≦30%)”.

As for `C=CC(=O)Nc1ccccc1Nc1nc(Nc2ccc3c(c2OC)CCCC(=O)N3CCCN2CCOCC2)ncc1Cl` [Compound I-146, N-(2-((5-chloro-2-((6-methoxy-1-(3-morpholinopropyl)-2-oxo-2,3,4,5-tetrahydro-1H-benzo[b]azepin-7-yl)amino)pyrimidin-4-yl)amino)phenyl)acrylamide], the “ERK1 Mass Mod (%)” value is listed as “E (provided a mass modification of ≧70%)”.

As for `C=CC(=O)Nc1cc(C)ccc1Nc1nc(Nc2nc(OC)ncc2F)ncc1C(F)(F)F` [Compound I-357, N-(2-((2-((5-fluoro-2-methoxypyrimidin-4-yl)amino)-5-(trifluoromethyl)pyrimidin-4-yl)amino)-5-methylphenyl)acrylamide], the “ERK1 Mass Mod (%)” value is “E (provided a mass modification of ≧70%)”.

As for `C=CC(=O)Nc1cc(F)ccc1Nc1nc(N[C@@H]2CCC[C@H](C(N)=O)C2)ncc1Cl` (racemic) [Compound I-112, Rac-cis-3-((4-((2-acrylamido-4-fluorophenyl)amino)-5-chloropyrimidin-2-yl)amino)cyclohexanecarboxamide], the “ERK1 Mass Mod (%)” value is “E (provided a mass modification of ≧70%)”.

`C=CC(=O)Nc1ccccc1Nc1nc(Nc2ccc(N(CC)C(C)=O)cc2OC)ncc1Cl` [Compound I-155, N-(2-((5-chloro-2-((4-(N-ethylacetamido)-2-methoxyphenyl)amino)pyrimidin-4-yl)amino)phenyl)acrylamide]: the “ERK1 Mass Mod (%)” value was “E (provided a mass modification of ≧70%)”.

For `C=CC(=O)Nc1ccccc1Nc1nc(Nc2ccc(OCCCN3CCOCC3)cc2OC)ncc1C(N)=O` [Compound I-254, 4-((2-acrylamidophenyl)amino)-2-((2-methoxy-4-(3-morpholinopropoxy)phenyl)amino)pyrimidine-5-carboxamide], the “ERK1 Mass Mod (%)” value is “E (provided a mass modification of ≧70%)”.

Take `C=CC(=O)Nc1ccccc1Nc1nc(Nc2cc(C(=O)NOCCO)ccc2C)ncc1C(F)(F)F` [Compound I-73, 3-((4-((2-Acrylamidophenyl)amino)-5-(trifluoromethyl)pyrimidin-2-yl)amino)-N-(2-hydroxyethoxy)-4-methylbenzamide]: the “ERK1 Mass Mod (%)” value is given as “E (key: E: provided a mass modification of ≧70%; F: provided a mass modification of 31-69%; G: proived a mass modification ≦30%)”.

Regarding `C=CC(=O)Nc1ccccc1Nc1nc(N[C@@H]2CCCN(C(C)=O)C2)ncc1Cl` [Compound I-128, (R)—N-(2-((2-((1-acetylpiperidin-3-yl)amino)-5-chloropyrimidin-4-yl)amino)phenyl) acrylamide], the “ERK1 Mass Mod (%)” value is on record as “E (provided a mass modification of ≧70%)”.

Consider `C=CC(=O)Nc1ccccc1Nc1nc(N[C@H]2CCCNC2)ncc1Cl` [Compound I-126, (S)—N-(2-((5-chloro-2-(piperidin-3-ylamino)pyrimidin-4-yl)amino)phenyl) acrylamide], for which the “ERK1 Mass Mod (%)” value is listed as “E (provided a mass modification of ≧70%)”.

As for `C=CC(=O)Nc1cc(OC)ccc1Nc1nc(Nc2ccc(N3CCCN(C(=O)OC(C)(C)C)CC3)cc2C#N)ncc1Cl` [Compound I-156, tert-butyl 4-(4-((4-((2-acrylamido-4-methoxyphenyl)amino)-5-chloropyrimidin-2-yl)amino)-3-cyanophenyl)-1,4-diazepane-1-carboxylate], the “ERK1 Mass Mod (%)” value was “E (provided a mass modification of ≧70%)”.

Regarding `C=CC(=O)Nc1cc(OC)ccc1Nc1nc(Nc2ccc(N(CC)C(C)=O)cc2C(F)(F)F)ncc1Cl` [Compound I-176, N-(2-((5-chloro-2-((4-(N-ethylacetamido)-2-(trifluoromethyl)phenyl)amino)pyrimidin-4-yl)amino)-5-methoxyphenyl)acrylamide], the “ERK1 Mass Mod (%)” value is on record as “E (provided a mass modification of ≧70%)”.

With `C=CC(=O)Nc1ccccc1Nc1nc(Nc2cc(C(=O)NOC)ccc2OC)ncc1C(F)(F)F` [Compound I-67, 3-((4-((2-Acrylamidophenyl)amino)-5-(trifluoromethyl)pyrimidin-2-yl)amino)-N,4-dimethoxybenzamide], the “ERK1 Mass Mod (%)” value was “E (provided a mass modification of ≧70%)”.

Take `C=CC(=O)Nc1ccccc1Nc1nc(Nc2cc(C(=O)NCCO)c(F)cc2C)ncc1Cl` [Compound I-232, 5-((4-((2-acrylamidophenyl)amino)-5-chloropyrimidin-2-yl)amino)-2-fluoro-N-(2-hydroxyethyl)-4-methylbenzamide]: the “ERK1 Mass Mod (%)” value is “E (provided a mass modification of ≧70%)”.

On to `C=CC(=O)Nc1ccccc1Nc1nc(Nc2cc(F)ccc2C)ncc1C(F)(F)F` [Compound I-285, N-(2-((2-((5-Fluoro-2-methylphenyl)amino)-5-(trifluoromethyl)pyrimidin-4-yl)amino)phenyl)acrylamide], for which the “ERK1 Mass Mod (%)” value is recorded as “E (provided a mass modification of ≧70%)”.

Consider `C=CC(=O)N[C@@H]1CCCC[C@H]1Nc1nc(Nc2cc(C(=O)NOCCO)ccc2C)ncc1C(N)=O` (racemic) [Compound I-257, Rac-trans-4-((2-acrylamidocyclohexyl)amino)-2-((5-((2-hydroxyethoxy)carbamoyl)-2-methylphenyl)amino)pyrimidine-5-carboxamide], for which the “ERK1 Mass Mod (%)” value is “G (proived a mass modification ≦30%)”.

For the compound `C=CC(=O)N[C@@H]1CCCC[C@H]1Nc1nc(Nc2cc(C(N)=O)ccc2C)ncc1Cl` (racemic) [Compound I-226, Rac-trans-3-((4-((2-acrylamidocyclohexyl)amino)-5-chloropyrimidin-2-yl)amino)-4-methylbenzamide], the “ERK1 Mass Mod (%)” value was “E (provided a mass modification of ≧70%)”.

Take `C=CC(=O)Nc1ccccc1Nc1nc(NC2CCC(F)(F)CC2)ncc1Cl` [Compound I-127, N-(2-((5-chloro-2-((4,4-difluorocyclohexyl)amino)pyrimidin-4-yl)amino)phenyl) acrylamide]: the “ERK1 Mass Mod (%)” value was “E (provided a mass modification of ≧70%)”.

Take `C=CC(=O)Nc1ccccc1Nc1nc(Nc2cc(C(=O)NOC)ccc2C#N)ncc1Cl` [Compound I-195, 3-((4-((2-acrylamidophenyl)amino)-5-chloropyrimidin-2-yl)amino)-4-cyano-N-methoxybenzamide]: the “ERK1 Mass Mod (%)” value is reported as “E (provided a mass modification of ≧70%)”.

`CC(=O)N1CCC[C@H](Nc2ncc(C(F)(F)F)c(Nc3ccccc3NC(=O)CCCl)n2)C1` [Compound I-21, (S)—N-(2-((2-((1-Acetylpiperidin-3-yl)amino)-5-(trifluoromethyl)pyrimidin-4-yl)amino)phenyl)-3-chloropropanamide]: the “ERK1 Mass Mod (%)” value is on record as “F (provided a mass modification of 31-69%)”.

For `C=CC(=O)Nc1cc(C)ccc1Nc1nc(Nc2cnc(OC)cc2C)ncc1C(F)(F)F` [Compound I-350, N-(2-((2-((6-methoxy-4-methylpyridin-3-yl)amino)-5-(trifluoromethyl)pyrimidin-4-yl)amino)-5-methylphenyl)acrylamide], the “ERK1 Mass Mod (%)” value was “F (provided a mass modification of 31-69%)”.

For `C=CC(=O)Nc1ccccc1Nc1nc(NC2CCCCC2)ncc1Cl` [Compound I-107, N-(2-((5-chloro-2-(cyclohexylamino)pyrimidin-4-yl)amino)phenyl) acrylamide], the “ERK1 Mass Mod (%)” value was “E (provided a mass modification of ≧70%)”.

For `C=CC(=O)Nc1ccccc1Nc1nc(Nc2ccc(NS(C)(=O)=O)cc2OC)ncc1Cl` [Compound I-185, N-(2-((5-chloro-2-((2-methoxy-4-(methylsulfonamido)phenyl)amino)pyrimidin-4-yl)amino)phenyl)acrylamide], the “ERK1 Mass Mod (%)” value is given as “E (provided a mass modification of ≧70%)”.

As for `C=CC(=O)Nc1ccc(C)cc1Nc1nc(NC2CCC(=O)CC2)ncc1C(F)(F)F` [Compound I-39, N-(4-Methyl-2-((2-((4-oxocyclohexyl)amino)-5-(trifluoromethyl)pyrimidin-4-yl)amino)phenyl)acrylamide], the “ERK1 Mass Mod (%)” value is given as “E (provided a mass modification of ≧70%)”.

On to `C/C=C/C(=O)Nc1cc(F)ccc1Nc1nc(N[C@@H]2CCC[C@H](C(N)=O)C2)ncc1C(F)(F)F` (racemic) [Compound I-6, Rac-(E)-3-((4-((2-(but-2-enamido)-4-fluorophenyl)amino)-5-(trifluoromethyl)pyrimidin-2-yl)amino)-cis-cyclohexanecarboxamide], for which the “ERK1 Mass Mod (%)” value is recorded as “E (provided a mass modification of ≧70%)”.

Take `C=CC(=O)Nc1ccccc1Nc1nc(Nc2ccc(N(CC)C(C)=O)cc2C(F)(F)F)ncc1Cl` [Compound I-320]: the “ERK1 Mass Mod (%)” value was “F (provided a mass modification of 31-69%)”.

As to `C=CC(=O)N[C@@H]1CCCC[C@H]1Nc1nc(N[C@H]2CCCN(C(=O)CO)C2)ncc1C(F)(F)F` [Compound I-32, N-((1R,2R)-2-((2-(((S)-1-(2-hydroxyacetyl)piperidin-3-yl)amino)-5-(trifluoromethyl)pyrimidin-4-yl)amino)cyclohexyl)acrylamide], the “ERK1 Mass Mod (%)” value was “F (key: E: provided a mass modification of ≧70%; F: provided a mass modification of 31-69%; G: proived a mass modification ≦30%)”.
